The structures appear in SMILES notation. pEC50: −log10 of the molar value. Where two headings read alike, the source gives them in different places.

Assay [1] concerns mouse macrophages. Kind of assay: stimulated release of TNF-α from mouse macrophages. The class given is cell-based. Conditions: Macrophage; for EC50: read-out: EC50 (nM) (mouse); for pEC50: Mus musculus. In outline:
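EC50 derived from dose-response curves for stimulated TNF-α release from mouse macrophages.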

Assay [2] concerns differentiated human THP-1 cells. Kind of assay: stimulated release of TNF-α from differentiated human THP-1 cells (ELISA, dose-response). Conditions: for EC50 / pEC50: Homo sapiens; for EC50: read-out: EC50 (nM) (THP-1). The format is cell-based. In outline: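 Human THP-1 cells were PMA-differentiated toward macrophages, and stimulated TNF-α release was measured by ELISA. EC50 values were taken from dose-response curves.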
In general terms: ELISA stands for enzyme-linked immunosorbent assay.

Setting [3] is: Table 1, TNF-α release from mouse macrophages.
Where [4] appears, read: THP-1, Table 1, TNF-α release from human THP-1 cells.
Where [5] appears, read: table of 133-139 (two lipid side chains), mouse macrophages.
[6] abbreviates: THP-1, table of 133-139 (two lipid side chains), human THP-1 cells.
The mark [7] stands for this setting: table of 125-132 (one lipid side chain, R and S), mouse macrophages.
Where [8] appears, read: THP-1, table of 125-132 (one lipid side chain, R and S), human THP-1 cells.
[9] abbreviates: Table 7, TNF-α release from mouse macrophages.
[10] abbreviates: THP-1, Table 7, TNF-α release from human THP-1 cells.

For `O=C(N[C@H]1C[C@@H]1c1ccccc1)[C@@H]1CN(C(=O)/C=C/C(=O)N2C[C@@H](C(=O)N[C@H]3C[C@@H]3c3ccccc3)[C@H](C(=O)N[C@H]3C[C@@H]3c3ccccc3)C2)C[C@H]1C(=O)N[C@H]1C[C@@H]1c1ccccc1` [Compound 36, (3S,3′S,4S,4′S)-1,1′-Fumaroyl-bis(N^3,N^4-bis((1S,2R)-2-phenylcyclopropyl)pyrrolidine-3,4-dicarboxamide)], the EC50 in assay [1] (setting [3]) and in assay [2] (setting [4]) was greater than 5000 nM each time.

With `CCCCCCCCNC(=O)[C@@H]1CN(C(=O)c2ccc(C(=O)N3C[C@@H](C(=O)N[C@H]4C[C@@H]4c4ccccc4)[C@H](C(=O)N[C@H]4C[C@@H]4c4ccccc4)C3)cc2)C[C@H]1C(=O)NCCCCCCCC` [Compound 137, (3S,4S)-1-(4-((3S,4S)-3,4-Bis(((1S,2R)-2-phenylcyclopropyl)carbamoyl)pyrrolidine-1-carbonyl)benzoyl)-N^3,N^4-dioctylpyrrolidine-3,4-dicarboxamide], the 50% effective concentration (EC50) – broadly, the midpoint of the concentration-response curve – in assay [1] (setting [5]) was determined as 10 nM; in assay [2] (setting [6]), 0.17 nM.

As to `CCCCCCCCCCCCNC(=O)[C@@H]1CN(C(=O)c2ccc(C(=O)N3C[C@@H](C(=O)N[C@H]4C[C@@H]4c4ccccc4)[C@H](C(=O)N[C@H]4C[C@@H]4c4ccccc4)C3)cc2)C[C@H]1C(=O)NCCCCCCCCCCCC` [Compound 135, (3S,4S)-1-(4-((3S,4S)-3,4-Bis(((1S,2R)-2-phenylcyclopropyl)carbamoyl)pyrrolidine-1-carbonyl)benzoyl)-N^3,N^4-didodecylpyrrolidine-3,4-dicarboxamide], the EC50 in assay [1] (setting [5]) worked out at 1000 nM; in assay [2] (setting [6]) it was 1 nM.

Turning to `O=C(N[C@H]1C[C@@H]1c1ccccc1)[C@@H]1CN(C(=O)c2ccc(C(=O)N3C[C@@H](C(=O)N[C@H]4C[C@@H]4c4ccccc4)[C@H](C(=O)N[C@H]4C[C@@H]4c4ccccc4)C3)cc2)C[C@H]1C(=O)N[C@H]1C[C@@H]1c1ccccc1` (racemic) [Compound 12, trans, trans-1,1′-Terephthaloylbis-(N^3,N^4-bis-(trans-2-phenylcyclopropyl)pyrrolidine-3,4-dicarboxamide)], the pEC50 (commonly −log10 of the EC50, conventionally taken in molar units) in assay [1] (read-out: EC50, stimulated release of TNF-α from mouse macrophages) was 7.00; in assay [2] (THP-1, running text, read-out: EC50, stimulated release of TNF-α from differentiated human THP-1 cells) it was 8.00. Also, in assay [2] (versus LPS or Pam3CSK4, side-by-side), the “efficacy of TNF-α release compared with reference agonist” value is recorded as “equally efficacious with LPS”.

`O=C(N[C@H]1C[C@@H]1c1ccccc1)[C@@H]1CN(C(=O)c2cc(Cl)c(C(=O)N3C[C@@H](C(=O)N[C@H]4C[C@@H]4c4ccccc4)[C@H](C(=O)N[C@H]4C[C@@H]4c4ccccc4)C3)cc2Cl)C[C@H]1C(=O)N[C@H]1C[C@@H]1c1ccccc1` [Compound 61, (3S,3′S,4S,4′S)-1,1′-(2,5-Dichloroterephthaloyl)-bis(N^3,N^4-bis((1S,2R)-2-phenylcyclopropyl)pyrrolidine-3,4-dicarboxamide)]: the EC50 was greater than 5000 nM in assay [1] (Table 3, TNF-α release from mouse macrophages) and 360 nM in assay [2] (THP-1, Table 3, TNF-α release from human THP-1 cells).

On to `CCCCCCCCCCCCCCCCNC(=O)[C@@H]1CN(C(=O)c2ccc(C(=O)N3C[C@@H](C(=O)N[C@H]4C[C@@H]4c4ccccc4)[C@H](C(=O)N[C@H]4C[C@@H]4c4ccccc4)C3)cc2)C[C@H]1C(=O)NCCCCCCCCCCCCCCCC` [Compound 133, (3S,4S)-1-(4-((3S,4S)-3,4-Bis(((1S,2R)-2-phenyl-cyclopropyl)carbamoyl)pyrrolidine-1-carbonyl)-benzoyl)-N^3,N^4-dihexadecylpyrrolidine-3,4-dicarboxamide], for which the EC50 was found to be 1000 nM in assay [1] (setting [5]) and 2.5 nM in assay [2] (setting [6]).

Consider `CC(C)(C)OC(=O)CCOCCOCCOCCNC(=O)COc1cc(C(=O)N2C[C@@H](C(=O)N[C@H]3C[C@@H]3c3ccccc3)[C@H](C(=O)N[C@H]3C[C@@H]3c3ccccc3)C2)ccc1C(=O)N1C[C@@H](C(=O)N[C@H]2C[C@@H]2c2ccccc2)[C@H](C(=O)N[C@H]2C[C@@H]2c2ccccc2)C1` [Compound 149, tert-Butyl 1-(2,5-Bis((3S,4S)-3,4-bis(((1S,2R)-2-phenylcyclopropyl)carbamoyl)pyrrolidine-1-carbonyl)phenoxy)-2-oxo-6,9,12-trioxa-3-azapentadecan-15-oate], for which the EC50 is 150 nM in assay [1] (table of functionalized derivatives 147-151, mouse macrophages) and 20 nM in assay [2] (THP-1, table of functionalized derivatives 147-151, human THP-1 cells).

Regarding `O=C(N[C@H]1C[C@@H]1c1ccccc1)[C@H]1CN(C(=O)c2ccc(C(=O)N3C[C@H](C(=O)N[C@@H]4C[C@H]4c4ccccc4)[C@@H](C(=O)N[C@@H]4C[C@H]4c4ccccc4)C3)cc2)C[C@@H]1C(=O)N[C@H]1C[C@@H]1c1ccccc1` [Compound 26, (3R,4R)-1-(4-((3R,4R)-3,4-Bis(((1R,2S)-2-phenylcyclopropyl)carbamoyl)-pyrrolidine-1-carbonyl)-benzoyl)—N^3,N^4-bis((1S,2R)-2-phenylcyclopropyl)-pyrrolidine-3,4-dicarboxamide], the pEC50 in assay [1] (Scheme 1, footnote b, read-out: EC50 TNF-α release from mouse macrophages) was less than 5.30; in assay [2] (THP-1, Scheme 1, footnote a, read-out: EC50 TNF-α release from human THP-1 cells), no more than 5.30.

In the case of `CCCCCCCCCCCCCCNC(=O)[C@@H]1CCN(C(=O)c2ccc(C(=O)N3C[C@@H](C(=O)N[C@H]4C[C@@H]4c4ccccc4)[C@H](C(=O)N[C@H]4C[C@@H]4c4ccccc4)C3)cc2)C1` [Compound 126, (3S,4S)—N^3,N^4-Bis((1S,2R)-2-phenylcyclopropyl)-1-(4-((R)-3-(tetradecylcarbamoyl)pyrrolidine-1-carbonyl)benzoyl)pyrrolidine-3,4-dicarboxamide], the EC50 turned out to be 260 nM in assay [1] (setting [7]) and 2 nM in assay [2] (setting [8]).

Consider `O=C(NCCc1ccc(F)cc1)[C@@H]1CN(C(=O)[C@H]2CC[C@H](C(=O)N3C[C@@H](C(=O)NCCc4ccc(F)cc4)[C@H](C(=O)NCCc4ccc(F)cc4)C3)CC2)C[C@H]1C(=O)NCCc1ccc(F)cc1` [Compound 107, (3S,3′S,4S,4′S)-1,1′-((1S,4S)-Cyclohexane-1,4-dicarbonyl)bis(N^3,N^4-bis(4-fluorophenethyl)-pyrrolidine-3,4-dicarboxamide)], for which the half-maximal effective concentration (EC50) in assay [1] (setting [9]) and in assay [2] (setting [10]) was greater than 5000 nM each time.

On to `CCCCCCCCCCNC(=O)[C@@H]1CCN(C(=O)c2ccc(C(=O)N3C[C@@H](C(=O)N[C@H]4C[C@@H]4c4ccccc4)[C@H](C(=O)N[C@H]4C[C@@H]4c4ccccc4)C3)cc2)C1` [Compound 128, (3S,4S)-1-(4-((R)-3-(Decylcarbamoyl)pyrrolidine-1-carbonyl)benzoyl)—N^3,N^4-bis((1S,2R)-2-phenyl-cyclopropyl)pyrrolidine-3,4-dicarboxamide], for which the EC50 was determined as 2400 nM in assay [1] (setting [7]) and 210 nM in assay [2] (setting [8]).

Turning to `O=C(NCCc1ccc(F)cc1)[C@@H]1CN(C(=O)/C=C/C(=O)N2C[C@@H](C(=O)NCCc3ccc(F)cc3)[C@H](C(=O)NCCc3ccc(F)cc3)C2)C[C@H]1C(=O)NCCc1ccc(F)cc1` [Compound 101, (3S,3′S,4S,4′S)-1,1′-Fumaroylbis-(N^3,N^4-bis(4-fluorophnethyl)pyrrolidine-3,4-dicarboxamide)], the EC50 in assay [1] (setting [9]) and in assay [2] (setting [10]) was greater than 5000 nM throughout.

Turning to `O=C(N[C@H]1C[C@@H]1c1ccccc1)[C@@H]1CN(C(=O)c2ccc3cc(C(=O)N4C[C@@H](C(=O)N[C@H]5C[C@@H]5c5ccccc5)[C@H](C(=O)N[C@H]5C[C@@H]5c5ccccc5)C4)ccc3c2)C[C@H]1C(=O)N[C@H]1C[C@@H]1c1ccccc1` [Compound 44, (3S,3′S,4S,4′S)-1,1′-(Naphthalene-2,6-dicarbonyl)bis(N^3,N^4-bis((1S,2R)-2-phenylcyclopropyl)-pyrrolidine-3,4-dicarboxamide)], the EC50 in assay [1] (Table 2, TNF-α release from mouse macrophages) is 380 nM; in assay [2] (THP-1, Table 2, TNF-α release from human THP-1 cells) it was 2 nM. Further, the “fold less active/potent than diprovocim-1 (3)” value in assay [2] (human THP-1 cells) was greater than 10 fold.

For the compound `O=C(N[C@H]1C[C@@H]1c1ccccc1)[C@@H]1CN(C(=O)[C@H]2CC[C@H](C(=O)N3C[C@@H](C(=O)N[C@H]4C[C@@H]4c4ccccc4)[C@H](C(=O)N[C@H]4C[C@@H]4c4ccccc4)C3)CC2)C[C@H]1C(=O)N[C@H]1C[C@@H]1c1ccccc1` [Compound 42, (3S,3′S,4S,4′S)-1,1′-(trans-1,4-Cyclohexane-dicarbonyl)bis(N^3,N^4-bis((1S,2R)-2-phenyl-cyclopropyl)pyrrolidine-3,4-dicarboxamide)], the 50% effective concentration (EC50) in assay [1] (setting [3]) and in assay [2] (setting [4]) was greater than 5000 nM in each case.

Take `CCCCNC(=O)[C@@H]1CN(C(=O)c2ccc(C(=O)N3C[C@@H](C(=O)NCCCC)[C@H](C(=O)NCCCC)C3)cc2)C[C@H]1C(=O)NCCCC` [Compound 146, (3S,3′S,4S,4′S)-1,1′-Terephthaloylbis(N^3,N^4-dibutylpyrrolidine-3,4-dicarboxamide)]: the EC50 in assay [1] (table of 140-146 (four lipid side chains), mouse macrophages) is greater than 5000 nM; in assay [2] (THP-1, table of 140-146 (four lipid side chains), human THP-1 cells) it was greater than 5000 nM.

(Values after patent US11040959B2, “Diprovocims: a new and potent class of TLR agonists” (The Scripps Research Institute, priority 2016, dated 2021).)
